This note sets out measurements from patent publication US11414385B2, “Compounds and methods for treating, detecting, and identifying compounds to treat apicomplexan parasitic diseases” (The University of Chicago, priority 2015, dated 2022).

Data set [1] in a line: Microsomal metabolic stability, mouse. The format is in vitro ADME. The following applies: for half-life: mouse, liver microsomes.
Data set [2] is described as follows: Aqueous kinetic solubility pH 7.4. It counts as physicochemical. The note with it: for solubility kinetic: PBS pH 7.4.
In a further data set the test system is MDR1. Description: in vitro. The format is in vitro ADME. The note with it: dog, MDCK-MDR1, MDCK-MDR1 Efflux Ratio.
The nature of another data set: in vitro. The format is in vitro ADME. The following applies: dog, MDCK-MDR1.
The next data set has as its system RH-YFP. Briefly: Assessment of compound degradation and microbicidal effect on Toxoplasma. It counts as cell-based, Toxoplasma gondii. The protocol:
HFF were cultured in a 96-well plate and infected with RH-YFP as described above on Day 0, 20 μL of compound was added to 9 wells for each compound and concentration (3 conditions, 3 wells per condition). In condition I, media was removed and replaced with fresh media on Day 3. In condition II, media was removed and replaced with fresh media and more compound on Day 3. In condition III, media was not replaced on Day 3, nor was the compound refreshed. On Day 6, media was removed and replaced with clean media in all wells. On Day 3, 6, and 9 plate was read in the fluorimeter and analyzed graphically in Prism (GraphPad Software).

Data set [3] concerns the target T1, Plasmodium falciparum bc1 complex cytochrome c reductase (Pfbc1) (Plasmodium falciparum, UniProt Q02768).
T1 construct: Parasite extract was then prepared by disruption with a sonicating probe; endogenous in cells; host or cells: P. falciparum 3D7 blood-stage parasites, saponin-freed and sonicated (crude parasite extract)
T1 sequence (Q02768 1-376): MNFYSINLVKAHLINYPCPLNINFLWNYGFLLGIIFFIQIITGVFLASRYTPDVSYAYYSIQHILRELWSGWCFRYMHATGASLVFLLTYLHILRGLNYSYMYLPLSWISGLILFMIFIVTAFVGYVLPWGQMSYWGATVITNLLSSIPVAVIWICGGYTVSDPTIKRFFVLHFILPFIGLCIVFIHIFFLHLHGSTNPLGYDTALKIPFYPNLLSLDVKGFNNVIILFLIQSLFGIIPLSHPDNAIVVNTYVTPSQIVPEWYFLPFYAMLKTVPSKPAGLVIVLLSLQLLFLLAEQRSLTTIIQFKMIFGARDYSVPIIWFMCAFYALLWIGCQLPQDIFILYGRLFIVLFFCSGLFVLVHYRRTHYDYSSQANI
Briefly: Pfbc1 native assay (cytochrome c reduction by parasite extract). The format is biochemical. The note with it: compound 1 μM, mean ± s.e.m. of 4 independent experiments. The protocol:
Plasmodium falciparum: 3D7 strain was obtained from the Liverpool School of Tropical Medicine. Protease cocktail inhibitor was obtained from Roche. Bradford protein assay dye reagent was obtained from Bio-Rad. All other reagents were obtained from Sigma-Aldrich. Decylubiquinol was produced as per Fisher et al. (Fisher et al. 2004)^21. In brief, 25 mg of decylubiquinone were dissolved in 400 μl of nitrogen-saturated hexane. An equal volume of aqueous 1 M sodium dithionite was added, and the mixture vortexed until colorless. The organic phase containing the decylubiquinol was collected, the solvent was evaporated under N2 and the decylubiquinol finally dissolved in 100 μl of 96% ethanol (acidified with 10 mM HCl). Concentrations of decylubiquinol was determined spectrophotometrically on a Cary 300 Bio UV/visible spectrophotometer (Varian, UK) from absolute spectra, using ε288-320=8.1 mM-1·cm^−1. Decylubiquinol was stored at −80° C. and used within two weeks.
The protocol for the preparation of parasite extract was adapted from Fisher et al. (Fisher et al. 2009)^22. Free parasites were prepared from infected erythrocytes pooled from five T75 flasks, by adding 5 volumes of 0.15% (w/v) saponin in phosphate-buffered saline (137 mM NaCl, 2.7 mM KCl, 1.76 mM K2HPO4, 8.0 mM Na2HPO4, 5.5 mM D-glucose, pH 7.4) for 5 min, followed by three washes by centrifugation in RPMI containing HEPES (25 mM), and a final resuspension in potassium phosphate buffer (50 mM K2HPO4, 50 mM KH2PO4, 2 mM EDTA, pH7.4) containing a protease inhibitor cocktail (Complete Mini; Roche). Parasite extract was then prepared by disruption with a sonicating probe for 5 s, followed by a 1 min rest period on ice to prevent the sample overheating. […] The protein concentration of the parasite extract was determined by Bradford protein assay (Bio-Rad).
Plasmodium falciparum bc1 complex cytochrome c reductase (Pfbc1) activity was measured by monitoring cytochrome c reduction at 550 versus 542 nm using a Cary 300 Bio UV-Visible Spectrophotometer (Varian, UK), using a protocol adapted from Fisher et al. (Fisher et al. 2009)^21-23. […]

[4] abbreviates: PBS, pH 7.4, aqueous buffer, kinetic from dmso stock.

Values after ≈ are worked out from the molar mass of the structure shown. Read-outs that look alike come from different tables or passages of the source.

One may read the solubility (kinetic) as solubility judged after dilution from a stock solution rather than from solid. What is called efflux ratio is a quotient of directional permeabilities that is used to spot active efflux. As usually defined, the Papp A→B is the apparent permeability from the apical to the basolateral side of a cell layer. High values mean fast passage, low ones slow passage. As to `Cc1[nH]c2c(c(=O)c1-c1ccc(Oc3ccc(OC(F)(F)F)cc3)cc1)CCCC2` [JAG21, 2-methyl-3-(4-(4-(trifluoromethoxy)phenoxy)phenyl)-5,6,7,8-tetrahydroquinolin-4(1H)-one], the “Mouse microsomal stability T1/2” value in data set [1] turned out to be 101 min. This molecule yielded a kinetic solubility in data set [2] (setting [4]) of 7 µM (≈ 2.91 µg/mL). For the same molecule, the efflux ratio in the data set on MDR1 was under 1.5. This molecule displayed a Papp A→B in the data set “in vitro” of over 10 ×10⁻⁶ cm/s. In addition, the “compound degradation over time” value in the data set with RH-YFP (6-day exposure in culture) is reported as “did not appear that the compound was being degraded over time”. Further, in the data set with RH-YFP (RH-YFP, media replaced), the “microbicidal effect” value is on record as “Neither compound was found to be microbicidal”. Moreover, the “Inhibition of cytochrome c reduction (% atovaquone response)” value in data set [3] is 86.4 ± 3.2 % atovaquone response.

What is called solubility is how much of the substance goes into solution per volume. Low values mean little dissolved substance, high ones much dissolved substance. The term inhibition denotes the share of the control response that was lost under treatment. Regarding `Cc1[nH]c2c(c(=O)c1-c1ccc(Oc3ccccc3)cc1)CCCC2` [MJM170], the “Mouse microsomal stability T1/2” value in data set [1] came out at 21.0 min. Further, the half-life in data set [1] (read-out: Mouse liver microsomes T1/2) turned out to be 21 min; in data set [1] (read-out: Mouse microsomal stability T1/2), 20 min. Besides, the solubility (kinetic) in data set [2] is 1.97 µM (≈ 0.653 µg/mL); in data set [2] (setting [4]), 2 µM (≈ 0.663 µg/mL). The molecule further came in with a solubility in data set [2] (aqueous buffer, kinetic from dmso stock, 100 mM Phosphate Buffer (pH 7.4)) of 1.97 µM (≈ 0.653 µg/mL). In addition, the “improved aqueous kinetic solubility (pH 7.4) over ELQ 271” value in data set [2] (relative to ELQ 271) is 10 fold. The efflux ratio with MDR1 was under 1.5. This molecule showed a Papp A→B in “in vitro” of 32.1 ×10⁻⁶ cm/s. Besides, the inhibition at 1 µM in data set [3] (read-out: Inhibition of cytochrome c reduction (% atovaquone response)) came to 69.7 ± 11.3%.
